From PubChem BioAssay AID1985 (Southern Research Specialized Biocontainment Screening …, 2009) come the findings set out here.

The structures appear in SMILES notation. Values joined by “and” are separate entries in the source; they are usually repeats but may differ in a detail not shown here. Equal entries are not always repeated.

By IC50 is commonly meant the concentration that gives 50% inhibition.

This test deals with S. Typhi PhoP-promoter GFP reporter, fluorescence, 4 h. Briefly: modified counter assay using GFP fluorescence, PhoP regulon inhibitor project, dose response (AID 1985).

`NC(=NCCCCCCN=C(N)/N=C(\N)Nc1ccc(Cl)cc1)/N=C(\N)Nc1ccc(Cl)cc1`: the IC50 is 3.89 µM and 3.25 µM and 5.35 µM. Turning to `C=C1c2cccc(O)c2C(O)=C2C(=O)[C@]3(O)C(O)=C(C(N)=O)C(=O)[C@@H](N(C)C)[C@@H]3[C@@H](O)[C@H]12`, the half-inhibitory concentration (IC50) is 0.376 µM. With `O=C(Nc1cccc(NC(=O)c2ccccc2Cl)c1)c1ccc([N+](=O)[O-])o1`, the IC50 was 17.5 µM. To `O=Nc1ccc(O)c2ncccc12` belongs 24.6 µM; to `CN1CCN(C(c2ccc(C(F)(F)F)cc2)c2ccc3cccnc3c2O)CC1` (centres undefined), 34.9 µM; to `O=C1CN(/N=C/c2ccc([N+](=O)[O-])o2)C(=O)N1`, 32.2 µM. To `NC1=NC[C@H](Cc2ccccc2)N1CCCCC1CCCCC1` belongs 36.1 µM; to `CCN1CCCC1CNC(=O)c1cc2cc(F)ccc2[nH]1` (centres undefined), 91 µM; to `O=C(NNc1nc2ccc(F)cc2s1)c1cccc(F)c1`, 148 µM. To `O=c1c2ccccc2nc(N/N=C/c2c(O)ccc3ccccc23)n1O` belongs 23 µM; to `Cc1cc(C)c2nc(C)cc(N/N=C/c3ccc(O)cc3)c2c1`, 49.7 µM; to `O=C(CCC(=O)Nc1ccc(Cl)cc1Cl)N/N=C/c1ccc([N+](=O)[O-])o1`, 33.9 µM. For `O[C@@H](c1cc(C(F)(F)F)nc2c(C(F)(F)F)cccc12)[C@H]1CCCCN1`, the IC50 is 90.6 µM. For the compound `O=[N+]([O-])c1ccc(O)c(/C=N/Nc2ccccn2)c1`, the half-inhibitory concentration (IC50) was 15.2 µM. To `CCCCC(CC)CN=C(N)NC(N)=NCCCCCCN=C(N)NC(N)=NCC(CC)CCCC` (centres undefined) belongs 2.61 µM. Turning to `O=C(NCCCN1CCN(c2ccc(F)cc2)CC1)Nc1ccc([N+](=O)[O-])cc1`, the half-maximal inhibitory concentration (IC50) was 117 µM. Consider `O=C(NC(CO)Cc1ccc([N+](=O)[O-])cc1)C(Cl)Cl` (centres undefined), for which the half-inhibitory concentration (IC50) was 4.59 µM. With `COCCCNC(=S)NNC(=O)c1ccccn1` the figure was 25.7 µM; with `CCCCn1c(=N)n(CC(=O)c2ccc(Br)s2)c2ccccc21`, 78.7 µM. As for `CC(C)CCC(CCNCc1ccccn1)c1ccc(Cl)cc1` (centres undefined), the half-inhibitory concentration (IC50) is 79.4 µM. As for `CNC[C@H](CC1CCCCC1)NC[C@H](Cc1ccccc1)NCCC12CC3CC(CC(C3)C1)C2`, the IC50 is 14.8 µM. With `COc1ccc2[nH]c3c(C)c4ccncc4c(C)c3c2c1` the figure was 39.2 µM. With `CC(NCC(O)COc1ccc2ccccc2c1)c1ccccc1` (centres undefined) the figure was 132 µM; with `CN1CCN(c2cc3c(cc2F)c(=O)c(C(=O)O)cn3CCF)CC1`, 0.444 µM. With `Cc1cc(C)nc(SCC(=O)Nc2sc3c(c2C#N)CCC(C)C3)n1` (centres undefined) the figure was 41.8 µM. With `COc1ccc(C(=O)NC(=S)NNC(=O)c2cnccn2)cc1`, the IC50 was 80.5 µM.

In the case of `Cc1nc(N)nc(N)c1CCCc1ccc(Cl)c(Cl)c1`, the IC50 was 43.1 µM. For `COc1c2ccccc2nc2ccccc12`, the IC50 is 28.8 µM. Consider `O=C1Nc2ccccc2C1=Nc1ccc(S(=O)(=O)Nc2nccs2)cc1`, for which the concentration for half-maximal inhibition (IC50) is 90.1 µM. To `CCCCOc1ccc(C(=O)OC2CC(C)N(C)CC2C)cc1` (centres undefined) belongs 41.7 µM; to `COc1c(N2CCN(C(=S)NCc3ccccc3)C(C)C2)c(F)cc2c(=O)c(C(=O)O)cn(C3CC3)c12` (centres undefined), 10.8 µM; to `N=c1c2c(n(Cc3ccc(Cl)c(Cl)c3)c3c1CCC3)CCCC2`, 80.1 µM. To `CN1CCc2nc(SCC(=O)Nc3ccc(Cl)cc3)c(C#N)cc2C1` belongs 67.2 µM; to `COc1nccnc1NS(=O)(=O)c1ccc(N=Cc2c(C)[nH]n(-c3ccc(C)c(C)c3)c2=O)cc1`, 114 µM; to `CN(CC(=O)Nc1ccc(F)c(F)c1F)c1cnccn1`, 108 µM.

Take `O=c1ccnc(Sc2ncccc2[N+](=O)[O-])[nH]1`: the IC50 was 102 µM. To `CC(=O)Nc1cccc(NC(=O)Nc2ccc(F)cc2F)c1` belongs 114 µM; to `Oc1c(Br)cc(Br)cc1C=Nc1ccc2[nH]ncc2c1`, 48.6 µM. With `CC1CC(=O)c2c(cc3c(-c4c(O)cc(O)c5c(O)c6c(cc45)OC(C)CC6=O)c(O)cc(O)c3c2O)O1` (centres undefined) the figure was 27 µM; with `O=C(O)c1sccc1Oc1ccc(F)cc1[N+](=O)[O-]`, 12.6 µM; with `CC1CCc2cc(F)cc3c(=O)c(C(=O)O)cn1c23` (centres undefined), 9.57 µM. For `CN1CCC(OC(=O)c2cccc(Br)c2)CC1`, the IC50 was 120 µM. `COc1nsnc1NS(=O)(=O)c1ccc(NC(=S)NC(=O)c2cccnc2)cc1`: the 50% inhibitory concentration (IC50) is 23.6 µM. With `CCOC(=O)N1CCN(CCC(=O)c2ccc(Cl)cc2)CC1` the figure was 108 µM; with `CCn1cc(C(=O)O)c(=O)c2cc(F)c(N3CCN(C(=S)Nc4ccccc4OC)CC3)cc21`, 6.7 µM. With `CCOC(=O)N/N=C\c1ccc([N+](=O)[O-])o1` the figure was 23.7 µM. Turning to `O=C(CN1CC[n+]2c(-c3cccs3)csc21)c1ccc(-c2ccccc2)cc1`, the half-inhibitory concentration (IC50) is 33.7 µM. With `CN1/C(=C\C=C\C2=[N+](C)c3ccc4ccccc4c3C2(C)C)C(C)(C)c2ccccc21` the figure was 3.62 µM.

Consider `O=C(N/N=C/c1cc(Br)ccc1O)c1ccccc1Cl`, for which the IC50 is 82.8 µM. For the compound `S=C(Nc1ccc(Cl)c(Cl)c1)NC1CCN(Cc2ccccc2)CC1`, the concentration for half-maximal inhibition (IC50) is 38 µM. To `OC1CNCc2cc3c(cc21)OCCO3` (centres undefined) belongs 80.8 µM; to `CCCCCCCCCCOC(=O)Cn1c(COc2ccc(OC)cc2)[n+](C)c2ccccc21`, 19.4 µM and 18.5 µM.

As to `CN(C)c1ccc(O)c2c1CC1CC3[C@@H](N(C)C)C(=O)C(C(N)=O)=C(O)[C@]3(O)C(=O)C1=C2O` (some centres undefined), the concentration for half-maximal inhibition (IC50) is 5.1 µM. To `O=c1c2c([nH]c3ccccc13)CCCCC2` belongs 78.4 µM; to `N#C/C(=C\c1ccc[nH]1)C(=O)NC1CC1`, 63.7 µM.

As to `O=C(N/N=C/c1ccccc1O)c1ccncc1`, the IC50 was 24.7 µM. To `C[C@H]1c2cccc(O)c2C(O)=C2C(=O)C3(O)C(O)=C(C(N)=O)C(=O)[C@@H](N(C)C)[C@@H]3[C@@H](O)[C@@H]21` (some centres undefined) belongs 1.9 µM; to `CCCCOc1ccc(OCCNC(=O)c2ccco2)cc1`, 65.4 µM.

In the case of `CCOC(=O)Cn1c(=N)n(CCOc2ccc3ccccc3c2)c2ccccc21`, the IC50 was 79.1 µM. To `O=C(/C=C/c1cccs1)NC(=S)NNC(=O)c1ccccc1O` belongs 27 µM. With `Cc1ccc(C(=O)N/N=C\c2sccc2C)cn1` the figure was 128 µM. With `CCCCCC(CC(=O)NO)C(=O)NC(C(=O)N1CCCC1CO)C(C)C` (centres undefined) the figure was 13.7 µM.

Take `O=c1[nH]c(-c2ccccn2)nc(C(F)(F)F)c1Br`: the concentration for half-maximal inhibition (IC50) was 66.7 µM. To `CCC(C)N1CCC2(CC1)N=c1c(c3c4c5c(C)c(O)c3c(O)c1=NC(=O)C(C)=CC=C[C@H](C)[C@H](O)[C@@H](C)[C@@H](O)[C@@H](C)[C@H](OC(C)=O)[C@H](C)[C@@H](OC)C=CO[C@@](C)(O5)C4=O)N2` (some centres undefined) belongs 9.09 µM; to `CCN1/C(=C/C=C/C=C/c2sc3ccccc3[n+]2CC)Sc2ccccc21`, 30.9 µM; to `CCCOc1ccc(S(=O)(=O)n2cc(F)c(=O)[nH]c2=O)cc1`, 42.2 µM. Take `Cc1ccc(CC(=O)Nc2ncc([N+](=O)[O-])s2)cc1`: the half-maximal inhibitory concentration (IC50) is 94.4 µM. With `Cc1cccc(NC2=NC3(CCCCC3)N=C(N)N2)c1` the figure was 88.4 µM.

As for `C/C(=N\NC(=O)c1ccc(Cl)cc1)c1ccccn1`, the IC50 was 48.3 µM. With `O=C(Cn1cncn1)N/N=C/c1ccccc1O` the figure was 103 µM.

On to `CN(C)CCNc1oc(COc2ccc(-c3ccccc3)cc2)nc1C#N`, for which the IC50 was 78.8 µM. `O=[N+]([O-])c1cc(CN2CCN(c3cccc(C(F)(F)F)c3)CC2)c2cccnc2c1O`: the IC50 is 34.6 µM. With `Clc1ccc(C(c2ccc(Cl)cc2)n2cc[n+](CC(OCc3ccc(Cl)cc3Cl)c3ccc(Cl)cc3Cl)c2)cc1` (centres undefined) the figure was 15 µM; with `Fc1ccccc1CCNCc1ccccc1`, 45.7 µM; with `CCOc1ccc(-c2cc(C)[n+](CCN(CC)CC)c(-c3ccc(OCC)cc3)c2)cc1`, 105 µM. To `O=C(N/N=C/c1cc([N+](=O)[O-])ccc1O)C1CC1` belongs 14.9 µM; to `COc1cc(/C=N/N=C(N)N)ccc1OCc1ccc(Cl)cc1`, 36.7 µM.

Regarding `CCn1cc(C(=O)O)c(=O)c2cc(F)c(N3CCN(C(=S)NC(=O)c4ccccc4F)CC3)cc21`, the IC50 is 62.8 µM. With `O=c1[nH]cc(F)c(=O)[nH]1` the figure was 0.378 µM.
